The kinase profiling compilation of Christmann-Franck et al. (2016)

Legend:
Test in all cases: radiometric filter-binding kinase assay
BRSK1 (human) = BRSK1 (human) (UniProt Q8TDC3)
[1] = test system: AKT1 (human), P31749 [S473D]
PKN2 (human) = PKN2 (human) (UniProt Q16513)
CAMKK2 (human) = CAMKK2 (human) (UniProt Q96RR4)
HIPK1 (human) = HIPK1 (human) (UniProt Q86Z02)
MST4 (human) = MST4 (human) (UniProt Q9P289)
LCK (mouse) = settings: accession and sequence are those of the human protein
[2] = test system: AKT2 (human), P31751 [S474D]
IKBKE (human) = IKBKE (human) (UniProt Q14164)
SRPK1 (human) = SRPK1 (human) (UniProt Q96SB4)
[3] = biological target: PRKAA1 PRKAB2 PRKAG1 (human) (UniProt O43741+Q13131+P54619)
PAK7 (human) = PAK7 (human) (UniProt Q9P286)
PAK7 (human), sequence (Q9P286 whole entry, looked up): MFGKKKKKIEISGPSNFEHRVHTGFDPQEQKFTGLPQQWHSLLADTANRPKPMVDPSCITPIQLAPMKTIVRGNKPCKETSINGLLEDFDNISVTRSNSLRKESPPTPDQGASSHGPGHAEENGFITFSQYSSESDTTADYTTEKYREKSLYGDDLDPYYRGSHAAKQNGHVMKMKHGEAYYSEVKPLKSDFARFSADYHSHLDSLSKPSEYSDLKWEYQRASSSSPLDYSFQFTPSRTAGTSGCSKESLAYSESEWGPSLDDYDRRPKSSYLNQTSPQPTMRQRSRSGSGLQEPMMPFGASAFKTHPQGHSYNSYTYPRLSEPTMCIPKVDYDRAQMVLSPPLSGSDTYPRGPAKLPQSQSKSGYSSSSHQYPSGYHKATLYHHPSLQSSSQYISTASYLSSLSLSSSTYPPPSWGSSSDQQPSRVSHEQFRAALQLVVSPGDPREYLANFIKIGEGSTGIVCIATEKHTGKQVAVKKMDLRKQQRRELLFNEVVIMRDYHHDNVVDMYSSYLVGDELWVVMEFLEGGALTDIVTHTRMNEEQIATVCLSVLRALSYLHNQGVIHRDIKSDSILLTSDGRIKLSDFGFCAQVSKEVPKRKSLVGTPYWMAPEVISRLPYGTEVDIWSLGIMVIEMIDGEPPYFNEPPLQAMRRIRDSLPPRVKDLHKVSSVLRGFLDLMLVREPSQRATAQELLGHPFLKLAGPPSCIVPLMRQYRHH

CaMK1 (human) = CaMK1 (human) (UniProt Q14012)
MAPKAPK3 (human) = MAPKAPK3 (human) (UniProt Q16644)
EPHA2 (human) = EPHA2 (human) (UniProt P29317)
EPHA2 (human), sequence (P29317 whole entry, looked up): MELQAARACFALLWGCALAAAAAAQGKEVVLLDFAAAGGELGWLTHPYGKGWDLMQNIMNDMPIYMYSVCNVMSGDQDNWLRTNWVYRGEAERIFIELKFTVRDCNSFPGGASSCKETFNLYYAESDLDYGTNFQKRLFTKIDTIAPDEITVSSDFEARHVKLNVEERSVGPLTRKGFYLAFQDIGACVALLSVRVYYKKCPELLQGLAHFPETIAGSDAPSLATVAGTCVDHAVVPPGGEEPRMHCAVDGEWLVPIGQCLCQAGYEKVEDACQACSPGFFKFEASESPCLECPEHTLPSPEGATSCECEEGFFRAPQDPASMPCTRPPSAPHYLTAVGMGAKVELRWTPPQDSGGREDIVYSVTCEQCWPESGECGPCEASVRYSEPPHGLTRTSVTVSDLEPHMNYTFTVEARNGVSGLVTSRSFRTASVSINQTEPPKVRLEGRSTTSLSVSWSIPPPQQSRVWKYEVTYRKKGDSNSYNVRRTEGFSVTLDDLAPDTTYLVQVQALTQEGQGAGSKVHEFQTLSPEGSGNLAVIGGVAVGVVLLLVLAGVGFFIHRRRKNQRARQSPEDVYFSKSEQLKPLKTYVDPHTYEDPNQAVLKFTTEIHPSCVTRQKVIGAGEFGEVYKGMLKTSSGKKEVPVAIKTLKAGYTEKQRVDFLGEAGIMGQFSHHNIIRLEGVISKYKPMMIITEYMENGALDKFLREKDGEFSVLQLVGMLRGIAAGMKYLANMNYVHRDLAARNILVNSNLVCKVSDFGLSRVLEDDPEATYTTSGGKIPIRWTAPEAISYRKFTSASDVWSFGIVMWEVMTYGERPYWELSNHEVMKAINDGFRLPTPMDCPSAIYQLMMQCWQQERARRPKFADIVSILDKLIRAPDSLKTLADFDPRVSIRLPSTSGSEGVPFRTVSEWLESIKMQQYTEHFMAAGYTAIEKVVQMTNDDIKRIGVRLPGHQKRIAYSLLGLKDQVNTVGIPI

PIM3 (human) = PIM3 (human) (UniProt Q86V86)
MAPK13 (human) = MAPK13 (human) (UniProt O15264)
GSK3B (human) = GSK3B (human) (UniProt P49841)
IGF1R (human) = IGF1R (human) (UniProt P08069)
MAP3K9 (human) = MAP3K9 (human) (UniProt P80192)
STK3 (human) = STK3 (human) (UniProt Q13188)
[4] = biological target: STK11 CAB39 STRADA (human) (UniProt Q9Y376+Q7RTN6+Q15831)
STK11 CAB39 STRADA (human), sequence (Q15831 whole entry, looked up): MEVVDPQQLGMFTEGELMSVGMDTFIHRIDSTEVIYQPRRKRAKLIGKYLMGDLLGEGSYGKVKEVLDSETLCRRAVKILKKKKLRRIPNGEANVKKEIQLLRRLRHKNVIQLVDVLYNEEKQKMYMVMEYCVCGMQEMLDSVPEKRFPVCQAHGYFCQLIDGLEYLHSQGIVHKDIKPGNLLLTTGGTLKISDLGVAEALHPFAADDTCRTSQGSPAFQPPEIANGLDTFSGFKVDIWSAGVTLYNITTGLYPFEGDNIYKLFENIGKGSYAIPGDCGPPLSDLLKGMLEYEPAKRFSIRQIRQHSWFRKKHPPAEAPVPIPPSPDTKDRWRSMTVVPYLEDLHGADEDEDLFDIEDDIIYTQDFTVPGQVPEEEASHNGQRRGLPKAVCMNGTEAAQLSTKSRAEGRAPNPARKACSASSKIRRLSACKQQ
STK11 CAB39 STRADA (human), sequence (Q7RTN6 whole entry, looked up): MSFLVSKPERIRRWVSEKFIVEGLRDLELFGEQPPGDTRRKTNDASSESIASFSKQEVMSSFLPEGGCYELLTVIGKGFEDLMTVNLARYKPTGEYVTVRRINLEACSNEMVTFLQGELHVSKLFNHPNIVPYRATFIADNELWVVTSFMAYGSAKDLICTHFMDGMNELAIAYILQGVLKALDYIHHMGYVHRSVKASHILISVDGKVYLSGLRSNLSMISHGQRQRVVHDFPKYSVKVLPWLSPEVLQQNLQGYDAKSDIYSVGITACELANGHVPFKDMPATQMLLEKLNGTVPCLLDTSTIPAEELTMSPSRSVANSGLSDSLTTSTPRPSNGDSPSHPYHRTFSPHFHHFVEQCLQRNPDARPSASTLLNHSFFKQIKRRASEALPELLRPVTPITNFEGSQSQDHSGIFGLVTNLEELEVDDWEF
STK11 CAB39 STRADA (human), sequence (Q9Y376 whole entry, looked up): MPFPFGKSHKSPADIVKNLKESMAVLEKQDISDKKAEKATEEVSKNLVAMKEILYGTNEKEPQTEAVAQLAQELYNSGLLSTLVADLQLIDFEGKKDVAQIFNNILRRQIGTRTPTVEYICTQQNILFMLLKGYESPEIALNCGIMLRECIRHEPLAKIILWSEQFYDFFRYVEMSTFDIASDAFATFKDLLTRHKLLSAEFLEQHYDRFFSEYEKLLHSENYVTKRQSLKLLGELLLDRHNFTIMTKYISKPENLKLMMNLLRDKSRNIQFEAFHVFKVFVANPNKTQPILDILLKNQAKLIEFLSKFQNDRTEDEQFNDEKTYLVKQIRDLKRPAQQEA

SYK (human) = SYK (human) (UniProt P43405)
MKNK2 (human) = MKNK2 (human) (UniProt Q9HBH9)
RPS6KA3 KD1 KD2 (human) = RPS6KA3 KD1 KD2 (human) (UniProt P51812)
MAPK14 (human) = MAPK14 (human) (UniProt Q16539)
YES1 (human) = YES1 (human) (UniProt P07947)
MAPK12 (human) = MAPK12 (human) (UniProt P53778)
HIPK3 (human) = HIPK3 (human) (UniProt Q9H422)
HIPK3 (human), sequence (Q9H422 whole entry, looked up): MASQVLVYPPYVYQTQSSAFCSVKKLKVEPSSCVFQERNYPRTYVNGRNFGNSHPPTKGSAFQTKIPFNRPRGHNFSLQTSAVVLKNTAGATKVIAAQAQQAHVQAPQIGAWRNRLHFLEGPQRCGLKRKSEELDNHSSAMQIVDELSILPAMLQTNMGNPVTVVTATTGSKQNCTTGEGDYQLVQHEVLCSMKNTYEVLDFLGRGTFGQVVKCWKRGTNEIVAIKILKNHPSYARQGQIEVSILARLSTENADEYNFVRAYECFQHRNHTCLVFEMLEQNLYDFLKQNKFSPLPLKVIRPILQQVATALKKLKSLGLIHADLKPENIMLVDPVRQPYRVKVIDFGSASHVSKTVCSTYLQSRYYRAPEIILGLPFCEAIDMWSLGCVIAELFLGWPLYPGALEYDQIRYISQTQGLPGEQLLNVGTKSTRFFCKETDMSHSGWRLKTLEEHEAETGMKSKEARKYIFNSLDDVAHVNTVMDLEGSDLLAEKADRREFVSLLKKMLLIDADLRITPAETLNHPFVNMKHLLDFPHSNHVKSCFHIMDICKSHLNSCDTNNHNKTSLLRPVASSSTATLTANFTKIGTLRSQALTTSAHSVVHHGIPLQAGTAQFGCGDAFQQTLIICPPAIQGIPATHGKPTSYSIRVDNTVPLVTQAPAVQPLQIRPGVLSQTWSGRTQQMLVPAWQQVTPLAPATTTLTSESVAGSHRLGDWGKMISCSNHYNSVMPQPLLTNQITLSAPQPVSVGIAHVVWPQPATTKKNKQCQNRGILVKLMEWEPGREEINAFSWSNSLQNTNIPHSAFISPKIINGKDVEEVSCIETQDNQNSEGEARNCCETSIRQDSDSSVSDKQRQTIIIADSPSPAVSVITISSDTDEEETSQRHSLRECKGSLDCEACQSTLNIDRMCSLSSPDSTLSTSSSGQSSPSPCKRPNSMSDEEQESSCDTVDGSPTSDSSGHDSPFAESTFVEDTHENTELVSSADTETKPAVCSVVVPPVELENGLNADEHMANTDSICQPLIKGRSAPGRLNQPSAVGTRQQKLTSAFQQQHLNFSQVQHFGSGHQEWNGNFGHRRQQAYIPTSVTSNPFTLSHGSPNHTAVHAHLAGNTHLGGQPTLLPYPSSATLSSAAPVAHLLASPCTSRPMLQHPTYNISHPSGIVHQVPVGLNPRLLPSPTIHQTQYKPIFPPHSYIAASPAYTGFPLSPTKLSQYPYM

MST4 (human), sequence (Q9P289 whole entry, looked up): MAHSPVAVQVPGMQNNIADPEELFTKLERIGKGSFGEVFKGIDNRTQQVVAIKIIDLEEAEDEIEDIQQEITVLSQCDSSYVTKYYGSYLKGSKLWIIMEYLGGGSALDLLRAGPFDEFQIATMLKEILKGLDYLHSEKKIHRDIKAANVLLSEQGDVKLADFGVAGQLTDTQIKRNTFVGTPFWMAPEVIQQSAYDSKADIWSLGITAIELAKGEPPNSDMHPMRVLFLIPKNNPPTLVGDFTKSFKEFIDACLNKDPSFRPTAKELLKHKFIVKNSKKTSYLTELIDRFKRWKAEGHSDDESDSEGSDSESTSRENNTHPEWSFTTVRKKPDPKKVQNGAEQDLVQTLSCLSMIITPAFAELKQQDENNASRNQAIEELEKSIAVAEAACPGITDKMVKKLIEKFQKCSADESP

Question: How did the residual activity (BRSK1 (human); compound 0.01 µM) turn out when `CNc1nc(-c2ccc3c(N)n[nH]c3c2)cc(N2C[C@@H](C(=O)NC3CCCCC3)CC[C@H]2C)n1` was run?
Answer: 110%

Question: And the residual activity (BRSK1 (human); compound 0.1 µM)?
Answer: 95%

Question: And the residual activity (BRSK1 (human); compound 1.0 µM)?
Answer: 57%

Question: And the residual activity ([1]; compound 0.01 µM)?
Answer: 179%

Question: And the residual activity ([1]; compound 0.1 µM)?
Answer: 117%

Question: And the residual activity ([1]; compound 1.0 µM)?
Answer: 97%

Question: What about the residual activity (PKN2 (human); compound 0.01 µM) of the same compound?
Answer: 90%

Question: And the residual activity (PKN2 (human); compound 0.1 µM)?
Answer: 102%

Question: What about the residual activity (PKN2 (human); compound 1.0 µM) of the same compound?
Answer: 82%

Question: What about the residual activity (CAMKK2 (human); compound 0.01 µM) of the same compound?
Answer: 112%

Question: And the residual activity (CAMKK2 (human); compound 0.1 µM)?
Answer: 123%

Question: What about the residual activity (CAMKK2 (human); compound 1.0 µM) of the same compound?
Answer: 127%

Question: What about the residual activity (HIPK1 (human); compound 0.01 µM) of the same compound?
Answer: 102%

Question: And the residual activity (HIPK1 (human); compound 0.1 µM)?
Answer: 105%

Question: And the residual activity (HIPK1 (human); compound 1.0 µM)?
Answer: 102%

Question: What about the residual activity (MST4 (human); compound 0.01 µM) of the same compound?
Answer: 112%

Question: What about the residual activity (MST4 (human); compound 0.1 µM) of the same compound?
Answer: 108%

Question: And the residual activity (MST4 (human); compound 1.0 µM)?
Answer: 119%

Question: What about the residual activity (LCK (mouse); compound 0.01 µM) of the same compound?
Answer: 112%

Question: What about the residual activity (LCK (mouse); compound 0.1 µM) of the same compound?
Answer: 107%

Question: What about the residual activity (LCK (mouse); compound 1.0 µM) of the same compound?
Answer: 114%

Question: And the residual activity ([2]; compound 0.01 µM)?
Answer: 125%

Question: And the residual activity ([2]; compound 0.1 µM)?
Answer: 118%

Question: And the residual activity ([2]; compound 1.0 µM)?
Answer: 100%

Question: And the residual activity (IKBKE (human); compound 0.01 µM)?
Answer: 114%

Question: And the residual activity (IKBKE (human); compound 0.1 µM)?
Answer: 97%

Question: What about the residual activity (IKBKE (human); compound 1.0 µM) of the same compound?
Answer: 74%

Question: And the residual activity (SRPK1 (human); compound 0.01 µM)?
Answer: 106%

Question: And the residual activity (SRPK1 (human); compound 0.1 µM)?
Answer: 120%

Question: And the residual activity (SRPK1 (human); compound 1.0 µM)?
Answer: 106%

Question: And the residual activity ([3]; compound 0.01 µM)?
Answer: 107%

Question: And the residual activity ([3]; compound 0.1 µM)?
Answer: 111%

Question: What about the residual activity ([3]; compound 1.0 µM) of the same compound?
Answer: 87%

Question: What about the residual activity (PAK7 (human); compound 0.01 µM) of the same compound?
Answer: 97%

Question: What about the residual activity (PAK7 (human); compound 0.1 µM) of the same compound?
Answer: 101%

Question: What about the residual activity (PAK7 (human); compound 1.0 µM) of the same compound?
Answer: 94%

Question: What about the residual activity (CaMK1 (human); compound 0.01 µM) of the same compound?
Answer: 108%

Question: And the residual activity (CaMK1 (human); compound 0.1 µM)?
Answer: 112%

Question: And the residual activity (CaMK1 (human); compound 1.0 µM)?
Answer: 117%

Question: And the residual activity (MAPKAPK3 (human); compound 0.01 µM)?
Answer: 112%

Question: What about the residual activity (MAPKAPK3 (human); compound 0.1 µM) of the same compound?
Answer: 112%

Question: And the residual activity (MAPKAPK3 (human); compound 1.0 µM)?
Answer: 100%

Question: What about the residual activity (EPHA2 (human); compound 0.01 µM) of the same compound?
Answer: 110%

Question: What about the residual activity (EPHA2 (human); compound 0.1 µM) of the same compound?
Answer: 118%

Question: And the residual activity (EPHA2 (human); compound 1.0 µM)?
Answer: 114%

Question: What about the residual activity (PIM3 (human); compound 0.01 µM) of the same compound?
Answer: 105%

Question: And the residual activity (PIM3 (human); compound 0.1 µM)?
Answer: 112%

Question: What about the residual activity (PIM3 (human); compound 1.0 µM) of the same compound?
Answer: 97%

Question: What about the residual activity (MAPK13 (human); compound 0.01 µM) of the same compound?
Answer: 106%

Question: And the residual activity (MAPK13 (human); compound 0.1 µM)?
Answer: 113%

Question: What about the residual activity (MAPK13 (human); compound 1.0 µM) of the same compound?
Answer: 108%

Question: What about the residual activity (GSK3B (human); compound 0.01 µM) of the same compound?
Answer: 108%

Question: And the residual activity (GSK3B (human); compound 0.1 µM)?
Answer: 111%

Question: And the residual activity (GSK3B (human); compound 1.0 µM)?
Answer: 109%

Question: What about the residual activity (IGF1R (human); compound 0.01 µM) of the same compound?
Answer: 126%

Question: And the residual activity (IGF1R (human); compound 0.1 µM)?
Answer: 115%

Question: What about the residual activity (IGF1R (human); compound 1.0 µM) of the same compound?
Answer: 107%

Question: And the residual activity (MAP3K9 (human); compound 0.01 µM)?
Answer: 110%

Question: And the residual activity (MAP3K9 (human); compound 0.1 µM)?
Answer: 111%

Question: And the residual activity (MAP3K9 (human); compound 1.0 µM)?
Answer: 107%

Question: And the residual activity (STK3 (human); compound 0.01 µM)?
Answer: 116%

Question: What about the residual activity (STK3 (human); compound 0.1 µM) of the same compound?
Answer: 128%

Question: What about the residual activity (STK3 (human); compound 1.0 µM) of the same compound?
Answer: 112%

Question: What about the residual activity ([4]; compound 0.01 µM) of the same compound?
Answer: 104%

Question: What about the residual activity ([4]; compound 0.1 µM) of the same compound?
Answer: 124%

Question: What about the residual activity ([4]; compound 1.0 µM) of the same compound?
Answer: 100%

Question: What about the residual activity (SYK (human); compound 0.01 µM) of the same compound?
Answer: 109%

Question: And the residual activity (SYK (human); compound 0.1 µM)?
Answer: 105%

Question: What about the residual activity (SYK (human); compound 1.0 µM) of the same compound?
Answer: 103%

Question: And the residual activity (MKNK2 (human); compound 0.01 µM)?
Answer: 91%

Question: And the residual activity (MKNK2 (human); compound 0.1 µM)?
Answer: 100%

Question: And the residual activity (MKNK2 (human); compound 1.0 µM)?
Answer: 106%

Question: What about the residual activity (RPS6KA3 KD1 KD2 (human); compound 0.01 µM) of the same compound?
Answer: 96%

Question: And the residual activity (RPS6KA3 KD1 KD2 (human); compound 0.1 µM)?
Answer: 97%

Question: And the residual activity (RPS6KA3 KD1 KD2 (human); compound 1.0 µM)?
Answer: 79%

Question: And the residual activity (MAPK14 (human); compound 0.01 µM)?
Answer: 105%

Question: And the residual activity (MAPK14 (human); compound 0.1 µM)?
Answer: 109%

Question: And the residual activity (MAPK14 (human); compound 1.0 µM)?
Answer: 103%

Question: What about the residual activity (YES1 (human); compound 0.01 µM) of the same compound?
Answer: 122%

Question: And the residual activity (YES1 (human); compound 0.1 µM)?
Answer: 119%

Question: And the residual activity (YES1 (human); compound 1.0 µM)?
Answer: 101%

Question: And the residual activity (MAPK12 (human); compound 0.01 µM)?
Answer: 109%

Question: And the residual activity (MAPK12 (human); compound 0.1 µM)?
Answer: 110%

Question: What about the residual activity (MAPK12 (human); compound 1.0 µM) of the same compound?
Answer: 106%

Question: What about the residual activity (HIPK3 (human); compound 0.01 µM) of the same compound?
Answer: 111%

Question: And the residual activity (HIPK3 (human); compound 0.1 µM)?
Answer: 105%

Question: And the residual activity (HIPK3 (human); compound 1.0 µM)?
Answer: 106%
